From US11241430B2, “Solid forms of 2-(tert-butylamino)-4-((1R,3R,4R)-3-hydroxy-4-methylcyclohexylamino)-pyrimidine-5-carboxamide, compositions thereof and methods of their use” (Signal Pharmaceuticals, LLC, priority 2014, dated 2022)
≈ marks a conversion by molar mass, not a printed value.

Key:
[1] = Compression test of Form A; format: physicochemical; conditions: 2000-psi pressure for about 1 minute
Description: The stability of Form A was further characterized by compression test and form transfer experiments.

[2] = Moisture sorption/desorption (hygroscopicity) by DVS; format: physicochemical
Description: Hygroscopicity was determined on a Surface Measurement Systems DVS. Typically a sample size of 5-20 mg was loaded into the DVS instrument sample pan and the sample was analyzed on a DVS automated sorption analyzer at room temperature. The relative humidity was increased from 0% to 90% RH at 10% RH step, then at 95% RH. The relative humidity was then decreased in a similar manner to accomplish a full adsorption/desorption cycle.
The moisture sorption/desorption behavior of Form A was determined by DVS.

Water uptake on storage = format: physicochemical
[3] = Slurry experiments of Form H in water/DMSO (form map)
Description: The effect of temperature (22° C.-70° C.) and water compositions in DMSO (50%-88%) on the stability of Form A and Form H of Compound 1 is mapped out in Table 6 and FIG. 45.

physchem = conditions: 25 °C, thermodynamic from solid
[4] = Form conversion experiments: heating of solvated forms; format: physicochemical
Description: (§1) Further form conversion experiments were performed to determine interconversion among solid forms. The solvated forms were isothermally held at 150° C. for 5 min and the resulted solids were consistent with Form A. All aqueous slurries also afforded Form A.

[5] = Form conversion experiments: slurry in water; format: physicochemical; conditions: RT, 5 days
Description: as §1

## C[C@@H]1CC[C@@H](Nc2nc(NC(C)(C)C)ncc2C(N)=O)C[C@H]1O [Form A, 2-(tert-butylamino)-4-((1R,3R,4R)-3-hydroxy-4-methylcyclohexylamino)-pyrimidine-5-carboxamide]
[1]
  solid form after compression (XRPD): still Form A
[2]; after DVS cycle 0-95% RH
  XRPD diffractogram after adsorption/desorption cycles: no change
[2]; at 80% RH (Table 5)
  DVS water uptake: 1.0 wt % at
[2]; between 0 and 10% RH, room temperature
  steep mass change (DVS): 1.3%
[2]; between 0 and 95% RH, room temperature
  total mass change (DVS): 2.3%
[2]; from 0 to 95% RH (Table 5)
  DVS water uptake: 1.2 wt % water
Water uptake on storage; room temperature
  water uptake at room temperature: relatively slow water uptake
Water uptake on storage; storage at 40° C./75% RH for 7 months
  water absorbed after storage: up to 3%
[3]; 22° C., 70-88% water in DMSO
  form stability in water/DMSO: remained as Form A
[3]; water rich water/DMSO mixture (>70%), 22° C.-70° C.
  thermodynamic stability in water/DMSO: thermodynamically stable form
physchem; pH 4.5, aqueous buffer
  solubility at 24 h: 0.289 mg/mL (≈ 899 µM)
physchem
  solubility at 24 h: 0.038 mg/mL (≈ 118 µM)

## C[C@@H]1CC[C@@H](Nc2nc(NC(C)(C)C)ncc2C(N)=O)C[C@H]1O [Form B, 2-(tert-butylamino)-4-((1R,3R,4R)-3-hydroxy-4-methylcyclohexylamino)-pyrimidine-5-carboxamide]
[4]; form transfer experiment, heating above the desolvation temperature
  solid form after heating above the desolvation temperature: Form A
[5]
  XRPD Result (solid form after slurry in water): Form A

## C[C@@H]1CC[C@@H](Nc2nc(NC(C)(C)C)ncc2C(N)=O)C[C@H]1O [Form D, 2-(tert-butylamino)-4-((1R,3R,4R)-3-hydroxy-4-methylcyclohexylamino)-pyrimidine-5-carboxamide]
[4]; Heating, isothermal hold at 150° C. for 5 min
  XRPD Result (solid form after heating): Form A

## C[C@@H]1CC[C@@H](Nc2nc(NC(C)(C)C)ncc2C(N)=O)C[C@H]1O [Form H, 2-(tert-butylamino)-4-((1R,3R,4R)-3-hydroxy-4-methylcyclohexylamino)-pyrimidine-5-carboxamide]
[3]; 50% water in DMSO, 22° C.
  Stable Polymorph Form after slurry of Form H: A/H
[3]; 60% water in DMSO, 40° C.
  Stable Polymorph Form after slurry of Form H: A/H
